Measurements published in patent US10077237B2 (Sanofi, priority 2013, dated 2018).
Values joined by “and” are separate entries in the source; they are usually repeats but may differ in a detail not shown here. Equal entries are not always repeated. Structures can show the parent of a compound that is named as a salt.

Molecular target: T1, recombinant human AMPK complex, containing α2β1γ2 (Homo sapiens, UniProt P54646+Q9Y478)
T1 construct: hsAMPKα2-552-His, hsAMPKβ1-2-270 and hsAMPKγ-2-569 respectively; hsAMPKβ1-2-270; hsAMPKγ-2-569; His (C); made in house; host or cells: Spodoptera frugiperda Sf21 (baculovirus)
T1 sequence (P54646 2-552): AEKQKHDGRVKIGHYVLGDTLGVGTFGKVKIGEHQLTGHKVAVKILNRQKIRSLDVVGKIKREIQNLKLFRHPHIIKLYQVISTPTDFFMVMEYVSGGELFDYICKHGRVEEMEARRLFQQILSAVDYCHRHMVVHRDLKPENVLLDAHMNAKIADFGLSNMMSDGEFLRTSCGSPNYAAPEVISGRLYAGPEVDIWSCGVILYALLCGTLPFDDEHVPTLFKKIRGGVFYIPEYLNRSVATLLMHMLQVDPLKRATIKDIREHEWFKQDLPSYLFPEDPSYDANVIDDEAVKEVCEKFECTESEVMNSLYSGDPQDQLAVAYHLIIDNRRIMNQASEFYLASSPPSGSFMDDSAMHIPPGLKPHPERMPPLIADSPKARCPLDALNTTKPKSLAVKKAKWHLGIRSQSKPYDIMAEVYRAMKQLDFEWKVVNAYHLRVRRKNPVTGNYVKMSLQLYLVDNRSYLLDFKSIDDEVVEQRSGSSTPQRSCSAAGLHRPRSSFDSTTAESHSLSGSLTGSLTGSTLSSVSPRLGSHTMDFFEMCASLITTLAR
T1 sequence (Q9Y478 2-270): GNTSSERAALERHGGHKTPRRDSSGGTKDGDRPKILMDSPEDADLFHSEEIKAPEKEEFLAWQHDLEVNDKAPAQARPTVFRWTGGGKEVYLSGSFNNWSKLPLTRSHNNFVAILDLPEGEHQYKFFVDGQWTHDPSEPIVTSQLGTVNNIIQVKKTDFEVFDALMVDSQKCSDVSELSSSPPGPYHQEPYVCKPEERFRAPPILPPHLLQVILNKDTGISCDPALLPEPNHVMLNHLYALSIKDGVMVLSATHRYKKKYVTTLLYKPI
T1 sequence (Q9UGJ0 2-569 partner limits assumed): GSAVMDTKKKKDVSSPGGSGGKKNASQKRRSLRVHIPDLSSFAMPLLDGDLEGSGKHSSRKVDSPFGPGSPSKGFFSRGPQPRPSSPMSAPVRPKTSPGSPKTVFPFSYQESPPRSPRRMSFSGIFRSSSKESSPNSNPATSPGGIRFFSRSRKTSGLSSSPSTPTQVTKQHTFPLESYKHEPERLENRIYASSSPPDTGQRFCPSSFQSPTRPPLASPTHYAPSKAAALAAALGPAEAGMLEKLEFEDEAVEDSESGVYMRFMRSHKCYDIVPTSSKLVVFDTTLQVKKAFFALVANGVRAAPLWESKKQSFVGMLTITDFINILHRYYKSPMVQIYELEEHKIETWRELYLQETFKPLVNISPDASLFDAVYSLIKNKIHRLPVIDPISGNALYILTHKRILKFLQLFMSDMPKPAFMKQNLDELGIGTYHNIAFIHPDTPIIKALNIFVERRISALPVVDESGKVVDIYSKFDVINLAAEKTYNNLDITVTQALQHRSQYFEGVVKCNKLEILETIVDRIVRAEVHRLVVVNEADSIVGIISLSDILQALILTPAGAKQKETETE
Assay: AMPK in vitro activation assay (HTRF)
Format: biochemical
Conditions: for EC50: HTRF, recombinant human α2β1γ2 AMPK, 200 μM ATP, biotinylated ACC-CREBp peptide, repeat determinations on separate lines; for Emax / α2β1γ2 AMPK Emax: potentiation of AMPK activity as percent over the basal signal (without compound)
Protocol: The recombinant human AMPK complex, containing α2β1γ2 was obtained from baculovirus expression system and generated by cotransfection in Spodoptera frugiperda 21 (Sf21). […] were produced in serum free medium (SF900 II, Invitrogen) for 82 hours after a triple infection at a multiplicity of infection (M.O.I.) of 0.05, 0.06 and 0.045 for hsAMPKα2-552-His, hsAMPKβ1-2-270 and hsAMPKγ-2-569 respectively. Cells were harvested by centrifugation at 1,000×g for 10 minutes at 4° C. and stored at −80° C. The insect cell pellet from 8 liters of culture was resuspended and homogenized in 580 ml of lysis buffer (20 mM Hepes pH 7.5, 150 mM NaCl, 10 mM imidazole, 50 mM NaF, 10% Glycerol and supplemented with EDTA free proteases inhibitor cocktail Roche). The AMPK complex was partially purified using an affinity chromatography under a Ni-NTA Agarose column equilibrated in the lysis buffer and eluted with a gradient (0 to 400 mM) of Imidazol.
A homogeneous time-resolved fluorescence (HTRF) assay was used (Li et al, Anal. Biochem. (2003) 321, 151-156) to identify compounds with stimulating activity for the recombinant human AMPK. Enzyme reaction was performed into a 96-well microtiter plate. First, 20 μL of test compounds in 0.5% DMSO were dispensed followed by 10 μL of protein in 50 mM HEPES buffer at pH 7.0, 100 mM NaCl, 5 mM MgCl2, 0.01% BSA, 0.8 mM DTT. After, 30 min incubation at room temperature, the reaction was initiated by the addition of 10 μL of a solution containing 200 μM of ATP as donor substrate, 2 μM or 0.08 μM of biotinylated ACC-CREBp peptide (PolyPeptide) as acceptor. Plates were then incubated 45 min at 37° C. The reaction was terminated by the addition of 40 μl detection mixture containing Eu^3+ cryptate-conjugated anti-pS^133-CREB antibody and streptavidine-XL665 (CisBio). Plates were further incubated for 2 h30 at room temperature. The fluorescence signal was measured using an Envision multireader (Perkin Elmer). The non-specific signal was obtained without substrates. Potentiation of AMPK activity was expressed as a percent over the basal signal (without compound) from which an EC50 value was determined.
The EC50 of a graded dose response curve represents the concentration of a compound where 50% of its maximal effect is observed.

Row | EC50 | Emax | α2β1γ2 AMPK Emax | Compound
1 | 88 nM | 142% | – | Cc1cc(C(O)=C2C(=O)Nc3cc(Cl)c(-c4ccc(OCCCN5CCN(C)CC5)cc4)cc32)on1 [Compound 70, 6-Chloro-3-[1-hydroxy-1-(3-methyl-isoxazol-5-yl)methylidene]-5-{4-[3-(4-methyl-piperazin-1-yl)-propoxy]-phenyl}-1,3-dihydro-indol-2-one, hydrochloride]
2 | 120 nM | 147% | – | O=C1Nc2cc(Cl)c(-c3ccc(C4=CCOCC4)cc3)cc2C1=C(O)c1cccc(F)c1 [Compound 52, 6-Chloro-5-[4-(3,6-dihydro-2H-pyran-4-yl)-phenyl]-3-[1-(3-fluoro-phenyl)-1-hydroxy-methylidene]-1,3-dihydro-indol-2-one]
3 | 58 nM | 157% | – | Cc1cc(C(O)=C2C(=O)Nc3cc(F)c(-c4ccc(N5CCOCC5)cc4)cc32)on1 [Compound 29, 6-Fluoro-3-[1-hydroxy-1-(3-methyl-isoxazol-5-yl)-methylidene]-5-(4-morpholin-4-yl-phenyl)-1,3-dihydro-indol-2-one]
4 | 0.3 nM and 0.2 nM | – | – | COc1cc(C(O)=C2C(=O)Nc3cc(Cl)c(-c4ccc(C5(CO)CC5)c(F)c4)cc32)on1 [Compound 96, 6-chloro-5-[3-fluoro-4-[1-(hydroxymethyl)cyclopropyl]phenyl]-3-[hydroxy-(3-methoxyisoxazol-5-yl)methylene]indolin-2-one]
5 | 4 nM | 185% | – | Cc1cc(C(O)=C2C(=O)Nc3cc(Cl)c(-c4ccc(OCCCO)cc4)cc32)on1 [Compound 91, 6-chloro-3-[hydroxy-(3-methylisoxazol-5-yl)methylene]-5-[4-(3-hydroxypropoxy)phenyl]indolin-2-one]
6 | 53 nM | – | (183 +/− 51) % | Cc1cc(C([O-])=C2C(=O)Nc3cc(Cl)c(-c4ccc(N(C)C)cc4)cc32)on1.[Na+] [Compound 2, 6-Chloro-5-(4-dimethylamino-phenyl)-3-[1-hydroxy-1-(3-methyl-isoxazol-5-yl)-methylidene]-1,3-dihydro-indol-2-one, sodium salt]
7 | 4 nM | 143% | – | O=C1Nc2cc(Cl)c(-c3ccc(C4(CO)CC4)cc3)cc2C1=C(O)c1cccs1 [Compound 114, 6-chloro-5-[4-[1-(hydroxymethyl)cyclopropyl]phenyl]-3-[hydroxy(2-thienyl)methylene]indolin-2-one]
8 | 1400 nM | 57% | – | O=C1Nc2cc(Cl)c(-c3ccc(-c4ccccc4)cc3)cc2C1=C(O)c1ccccc1 [Compound 7, 5-Biphenyl-4-yl-6-chloro-3-[1-hydroxy-1-phenyl-methylidene]-1,3-dihydro-indol-2-one]
9 | 240 nM | 108% | – | Cc1cc(C(O)=C2C(=O)Nc3cc(Cl)c(-c4ccc(F)cc4)cc32)on1 [Compound 30, 6-Chloro-5-(4-fluoro-phenyl)-3-[1-hydroxy-1-(3-methyl-isoxazol-5-yl)-methylidene]-1,3-dihydro-indol-2-one]
10 | 24 nM and 23 nM | 120% | – | CN(C)c1ccc(-c2cc3c(cc2Cl)NC(=O)C3=C(O)c2ccc(C(=O)O)cc2)cc1 [Compound 9, 4-{[6-Chloro-5-(4-dimethylamino-phenyl)-2-oxo-1,2-dihydro-indolylidene]-hydroxy-methyl}-benzoic acid]
11 | 0.3 nM | 173% | – | O=C1Nc2cc(Cl)c(-c3ccc(C4(CO)CC4)cc3)cc2C1=C(O)c1cc2ccccc2o1 [Compound 168, 3-[benzofuran-2-yl(hydroxy)methylene]6-chloro-5-[4-[1-(hydroxymethyl)cyclopropyl]phenyl]indolin-2-one]
12 | 3 nM | 230% | – | O=C1Nc2cc(Cl)c(-c3ccc(C4(CO)CC4)cc3)cc2C1=C(O)c1ccc(F)c(F)c1 [Compound 143, 6-chloro-3-[(3,4-difluorophenyl)hydroxy-methylene]-5-[4-[1-(hydroxymethyl)cyclopropyl]phenyl]indolin-2-one]
13 | 2 nM | 159% | – | Cc1cc(C(O)=C2C(=O)Nc3cc(F)c(-c4ccc(C5(CO)CC5)cc4)cc32)on1 [Compound 72, 6-Fluoro-5-[4-(1-hydroxymethyl-cyclopropyl)phenyl]-3-[1-hydroxy-1-(3-methyl-isoxazol-5-yl)methylidene]-1,3-dihydro-indol-2-one]
14 | 40 nM | – | – | COc1cccc(C(O)=C2C(=O)Nc3cc(Cl)c(-c4ccc(N5CCOCC5)cc4)cc32)c1 [Compound 50, 6-Chloro-3-[1-hydroxy-1-(3-methoxy-phenyl)-methylidene]-5-(4-morpholin-4-yl-phenyl)-1,3-dihydro-indol-2-one]
15 | 15 nM | 107% | – | CC(=O)NCCOc1ccc(-c2cc3c(cc2Cl)NC(=O)C3=C(O)c2cc(C)no2)cc1 [Compound 104, N-[2-[4-[6-chloro-3-[hydroxy-(3-methylisoxazol-5-yl)methylene]-2-oxo-indolin-5-yl]phenoxy]ethyl]acetamide]
16 | 190 nM | 135% | – | N#Cc1cccc(C(O)=C2C(=O)Nc3cc(Cl)c(-c4ccc(N5CCOCC5)cc4)cc32)c1 [Compound 18, 3-{[6-Chloro-5-(4-morpholin-4-yl-phenyl)-2-oxo-1,2-dihydro-indolylidene]-hydroxy-methyl}-benzonitrile]
17 | 7 nM | 172% | – | COc1cc(C(O)=C2C(=O)Nc3cc(Cl)c(-c4ccc(C(O)CO)cc4)cc32)on1 (centres unmarked) [Compound 122, 6-chloro-5-[4-(1,2-dihydroxyethyl)phenyl]-3-[hydroxy-(3-methoxyisoxazol-5-yl)methylene]indolin-2-one]
18 | 2 nM | 122% | – | O=C1Nc2cc(Cl)c(-c3ccc(N4CCOCC4)cc3)cc2C1=C(O)c1cc(O)no1 [Compound 102, 6-chloro-3-[hydroxy-(3-hydroxyisoxazol-5-yl)methylene]-5-(4-morpholinophenyl)indolin-2-one]
19 | 49 nM | 364% | – | Cc1cc(C(O)=C2C(=O)Nc3cc(Cl)c(-c4ccc(OCC5COC5)cc4)cc32)on1 [Compound 132, 6-chloro-3-[hydroxy-(3-methylisoxazol-5-yl)methylene]-5-[4-(oxetan-3-ylmethoxy)phenyl]indolin-2-one]
20 | 13 nM | 207% | – | CC(C)Oc1cc(C(O)=C2C(=O)Nc3cc(Cl)c(-c4ccc(C5CC(O)C5)cc4)cc32)on1 (centres unmarked) [Compound 166, 6-chloro-5-[4-(3-hydroxycyclobutyl)phenyl]-3-[hydroxy-(3-isopropoxyisoxazol-5-yl)methylene]indolin-2-one]
21 | 1710 nM | 180% | – | Cn1ccc(C(O)=C2C(=O)Nc3cc(Cl)c(-c4ccc(N5CCOCC5)cc4)cc32)n1 [Compound 53, 6-Chloro-3-[1-hydroxy-1-(1-methyl-1H-pyrazol-3-yl)-methylidene]-5-(4-morpholin-4-yl-phenyl)-1,3-dihydro-indol-2-one]
22 | 95 nM | 87% | – | Cc1cc(C(O)=C2C(=O)Nc3cc(Cl)c(-c4ccc(C5=CCOCC5)cc4)cc32)sn1 [Compound 48, 6-Chloro-5-[4-(3,6-dihydro-2H-pyran-4-yl)-phenyl]-3-[1-hydroxy-1-(3-methyl-isothiazol-5-yl)-methylidene]-1,3-dihydro-indol-2-one]
23 | 5 nM | – | (187) % | 6-Chloro-3-[1-hydroxy-1-(3-methoxy-isoxazol-yl)-methylidene]-5-[4-(1-hydroxymethyl-cyclopropyl)-phenyl]-1,3-dihydro-indol-2-one [Compound 54]
24 | 780 nM | 136% | – | COc1cc(-c2cc3c(cc2Cl)NC(=O)C3=C(O)c2cc(C)no2)ccc1O [Compound 81, 6-chloro-5-(4-hydroxy-3-methoxy-phenyl)-3-[hydroxy-(3-methylisoxazol-5-yl)methylene]indolin-2-one]
25 | 3070 nM | 192% | – | CCOc1ccc(-c2cc3c(cc2Cl)NC(=O)C3=C(O)c2cc(C)no2)cc1 [Compound 66, 6-Chloro-5-(4-ethoxy-phenyl)-3-[1-hydroxy-1-(3-methyl-isoxazol-5-yl)-methylidene]-1,3-dihydro-indol-2-one]
26 | 5 nM | 187% | – | COc1cc(C(O)=C2C(=O)Nc3cc(Cl)c(-c4ccc(OCCCN5CCOCC5)cc4)cc32)on1 [Compound 99, 6-chloro-3-[hydroxy-(3-methoxyisoxazol-5-yl)methylene]-5-[4-(3-morpholinopropoxy)phenyl]indolin-2-one]
